Assay results published in ChEMBL document CHEMBL1201862, “PubChem BioAssay data set” (2004).
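Dose response: 5 concentrations. Exposure: 48 h. Format: 96-well plates. Endpoint: linear interpolation; highest concentration if not reached. Here, GI50 denotes the concentration required for 50% inhibition of growth.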 The source made the active and inactive calls. No stated cut-off is given here; in the data, active = GI50 up to about 1.1 µM and inactive = higher.

What was measured:
Experiment in all cases: DTP human tumour cell line panel, 48 h
BT-549 = system: BT-549
CCRF-CEM = system: CCRF-CEM
HCT-116 = system: HCT-116
HOP-62 = system: HOP-62
HOP-92 = system: HOP-92
K562 = system: K562
M14 = system: M14
Malme-3M = system: Malme-3M
OVCAR-3 = system: OVCAR-3
OVCAR-4 = system: OVCAR-4
OVCAR-5 = system: OVCAR-5
RPMI-8226 = system: RPMI-8226
SF-268 = system: SF-268
SK-MEL-2 = system: SK-MEL-2
SK-MEL-5 = system: SK-MEL-5
SNB-19 = system: SNB-19
SNB-75 = system: SNB-75
TK-10 = system: TK-10
UACC-257 = system: UACC-257
UACC-62 = system: UACC-62

| Structure (SMILES) | GI50 (BT-549) | GI50 (CCRF-CEM) | GI50 (HCT-116) | GI50 (HOP-62) | GI50 (HOP-92) | GI50 (K562) | GI50 (M14) | GI50 (Malme-3M) | GI50 (OVCAR-3) | GI50 (OVCAR-4) | GI50 (OVCAR-5) | GI50 (RPMI-8226) | GI50 (SF-268) | GI50 (SK-MEL-2) | GI50 (SK-MEL-5) | GI50 (SNB-19) | GI50 (SNB-75) | GI50 (TK-10) | GI50 (UACC-257) | GI50 (UACC-62) |
| --- | --- | --- | --- | --- | --- | --- | --- | --- | --- | --- | --- | --- | --- | --- | --- | --- | --- | --- | --- | --- |
| CN(Cc1cc(Cl)cc(Cl)c1)CC(C(=O)c1ccccc1)c1ccccc1 (stereo not given) | 3.06 µM (inactive) | < 0.0439 µM (active) | 0.689 µM (active) | 24.8 µM (inactive) | 7.33 µM (inactive) | 0.962 µM (active) | 2.98 µM (inactive) | 8 µM (inactive) | 0.605 µM (active) | 2.07 µM (inactive) | 6.21 µM (inactive) | 0.1 µM (active) | 13.7 µM (inactive) | 10.2 µM (inactive) | 10.5 µM (inactive) | 14.4 µM (inactive) | 7.48 µM (inactive) | 6.37 µM (inactive) | 2.56 µM (inactive) | 2.9 µM (inactive) |
| C=C1C(=O)OC2CC3(C)OC3CC/C(C)=C/C(OC(C)=O)C12 (stereo not given) | 9.71 µM (inactive) | 2.12 µM (inactive) | 4.05 µM (inactive) | 18.7 µM (inactive) | 1.82 µM (inactive) | 2.47 µM (inactive) | 3.32 µM (inactive) | 2.55 µM (inactive) | 10.5 µM (inactive) | 6.01 µM (inactive) | 8.51 µM (inactive) | 2.13 µM (inactive) | 17 µM (inactive) | 15.5 µM (inactive) | 8.02 µM (inactive) | 18.3 µM (inactive) | 8.77 µM (inactive) | 3.61 µM (inactive) | 9.64 µM (inactive) | 9.89 µM (inactive) |
| Cc1cccc(Cl)c1NC(=O)/C=C/c1ccccc1 | > 100 µM (inactive) | > 100 µM (inactive) | 39.4 µM (inactive) | 74.6 µM (inactive) | 29.6 µM (inactive) | > 100 µM (inactive) | > 100 µM (inactive) | > 100 µM (inactive) | > 100 µM (inactive) | 26.9 µM (inactive) | > 100 µM (inactive) | 32.3 µM (inactive) | 67 µM (inactive) | > 100 µM (inactive) | 95.5 µM (inactive) | > 100 µM (inactive) | 24.2 µM (inactive) | 40.6 µM (inactive) | > 100 µM (inactive) | > 100 µM (inactive) |
| CC(=O)C(=[N+]=[N-])C(=O)OC(C)(C)C#N | > 10 µM (inactive) | > 10 µM (inactive) | > 10 µM (inactive) | > 10 µM (inactive) | > 10 µM (inactive) | > 10 µM (inactive) | > 10 µM (inactive) | > 10 µM (inactive) | > 10 µM (inactive) | > 10 µM (inactive) | > 10 µM (inactive) | > 10 µM (inactive) | > 10 µM (inactive) | > 10 µM (inactive) | > 10 µM (inactive) | > 10 µM (inactive) | 1.48 µM (inactive) | > 10 µM (inactive) | > 10 µM (inactive) | > 10 µM (inactive) |
| CC(C)(C)OC(=O)N(O)CCCn1cnc2c(NC3CC3)ncnc21 | > 100 µM (inactive) | > 100 µM (inactive) | > 100 µM (inactive) | > 100 µM (inactive) | > 100 µM (inactive) | > 100 µM (inactive) | > 100 µM (inactive) | > 100 µM (inactive) | > 100 µM (inactive) | > 100 µM (inactive) | > 100 µM (inactive) | > 100 µM (inactive) | > 100 µM (inactive) | > 100 µM (inactive) | > 100 µM (inactive) | > 100 µM (inactive) | 35.1 µM (inactive) | > 100 µM (inactive) | > 100 µM (inactive) | > 100 µM (inactive) |
| C(=N\c1ccc(-c2nc3ccccc3s2)cc1)/c1ccc[nH]1 | 17.3 µM (inactive) | 21.7 µM (inactive) | 16.1 µM (inactive) | 12.5 µM (inactive) | 17.4 µM (inactive) | 20.4 µM (inactive) | 17.9 µM (inactive) | 18.2 µM (inactive) | 14.7 µM (inactive) | 23.8 µM (inactive) | 22 µM (inactive) | 15.5 µM (inactive) | 15.5 µM (inactive) | 17.3 µM (inactive) | 16.7 µM (inactive) | 29.4 µM (inactive) | 22.2 µM (inactive) | 31.8 µM (inactive) | 17.1 µM (inactive) | 15.6 µM (inactive) |
| FC1(F)SC2CCCCCCCCCCC2C1(F)F (stereo not given) | 44 µM (inactive) | 19.2 µM (inactive) | 18.4 µM (inactive) | 38.6 µM (inactive) | 19.1 µM (inactive) | 15.3 µM (inactive) | 39.7 µM (inactive) | 21.8 µM (inactive) | 18.5 µM (inactive) | 22.1 µM (inactive) | 47.5 µM (inactive) | 59.7 µM (inactive) | 29.2 µM (inactive) | 18.2 µM (inactive) | 32.9 µM (inactive) | > 100 µM (inactive) | 30.6 µM (inactive) | 56.2 µM (inactive) | 20.5 µM (inactive) | 33.9 µM (inactive) |
| COC(=O)[C@H](Cc1ccccc1)NC(=O)c1ccc(CNC(=O)/C=C/c2ccc(-c3ccccc3)cc2)cc1 | 24.9 µM (inactive) | 6.62 µM (inactive) | 4.95 µM (inactive) | 15.6 µM (inactive) | 80.9 µM (inactive) | 77.1 µM (inactive) | 94.6 µM (inactive) | 24.9 µM (inactive) | > 100 µM (inactive) | > 100 µM (inactive) | 59.4 µM (inactive) | > 100 µM (inactive) | 15.2 µM (inactive) | > 100 µM (inactive) | > 100 µM (inactive) | 12.6 µM (inactive) | 10.5 µM (inactive) | 68.1 µM (inactive) | > 100 µM (inactive) | 44.2 µM (inactive) |
| CC1(C(=O)O)C[C@](C)(C(=O)OCc2ccccc2)C[C@](C)(C(=O)OCc2ccccc2)C1 (stereo not given in full) | 26.5 µM (inactive) | 34.3 µM (inactive) | 24.1 µM (inactive) | 30.5 µM (inactive) | 19.6 µM (inactive) | 37 µM (inactive) | 45.6 µM (inactive) | 63.2 µM (inactive) | 26.4 µM (inactive) | 39.8 µM (inactive) | 34.3 µM (inactive) | 26.2 µM (inactive) | 47.9 µM (inactive) | 17.5 µM (inactive) | 32.7 µM (inactive) | 45.7 µM (inactive) | 13.7 µM (inactive) | 43.3 µM (inactive) | 38.9 µM (inactive) | 19 µM (inactive) |
